Experimental findings from patent US11084800B2 (Achillion Pharmaceuticals, Inc., priority 2017, dated 2021) are described below.

pIC50: −log10 of the molar value.

In the first experiment the target is Human Factor D (Homo sapiens (Human), UniProt P00746). Put plainly: Human Factor D Assay. The class given is biochemical. The following applies: Factor D inhibition, assay of Example 10; read-out: IC5 (Stars). Summed up: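 Serum-purified Factor D (80 nM final) preincubated 5 min at room temperature with compound in 50 mM Tris, 1 M NaCl, pH 7.5. Z-L-Lys-SBz and DTNB added at 100 μM each; A405 followed every 30 s for 30 min. IC50 from nonlinear regression of rates versus concentration.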
Sequence of Human Factor D (P00746 26-253): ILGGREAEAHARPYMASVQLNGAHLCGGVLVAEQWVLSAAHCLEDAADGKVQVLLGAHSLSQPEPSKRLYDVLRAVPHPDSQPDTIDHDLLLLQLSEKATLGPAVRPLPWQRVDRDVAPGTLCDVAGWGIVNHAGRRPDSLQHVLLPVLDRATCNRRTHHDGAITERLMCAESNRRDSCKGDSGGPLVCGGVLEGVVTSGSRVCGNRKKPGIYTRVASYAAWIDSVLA
As to `CC(=O)c1cn(CC(=O)N2[C@H](C(=O)Nc3nc(Br)c(F)cc3C)C[C@@]3(C)C[C@@H]23)c2c(C)nc(-c3cnc(C)nc3)cc12` [Compound 471], the pIC50 is above 6.00.
For `CC(=O)c1cn(CC(=O)N2[C@H](C(=O)Nc3nc(Br)ccc3C)C[C@@]3(C)C[C@@H]23)c2c(C)nc(-c3cnc(C)nc3)cc12` [Compound 472, (1R,3S,5R)-2-(2-(3-Acetyl-7-methyl-5-(2-methylpyrimidin-5-yl)-1H-pyrrolo[2,3-c]pyridin-1-yl)acetyl)-N-(6-bromo-3-methylpyridin-2-yl)-5-methyl-2-azabicyclo[3.1.0]hexane-3-carboxamide], the pIC50 was above 6.00.
As for `CCNC(=O)c1nn(CC(=O)N2[C@H](C(=O)Nc3nc(Br)ccc3C)C[C@@]3(C)C[C@@H]23)c2ccc(-c3cnc(C)nc3)cc12` [Compound 474, 1-{2-[(1R,3S,5R)-3-[(6-Bromo-3-methylpyridin-2-yl)carbamoyl]-5-methyl-2-azabicyclo[3.1.0]hexan-2-yl]-2-oxoethyl}-N-ethyl-5-(2-methylpyrimidin-5-yl)indazole-3-carboxamide], the pIC50 is above 6.00.
On the same count and under the same terms, under `CC(=O)c1cn(CC(=O)N2[C@H](C(=O)Nc3nc(Br)ccc3C)C[C@@]3(C)C[C@@H]23)c2cc(F)c(-c3cnc(C)nc3)cc12` [Compound 482, (1R,3S,5R)-2-(2-(3-acetyl-6-fluoro-5-(2-methylpyrimidin-5-yl)-1H-indol-1-yl)acetyl)-N-(6-bromo-3-methylpyridin-2-yl)-5-methyl-2-azabicyclo[3.1.0]hexane-3-carboxamide] stands above 6.00; under `CC(=O)c1c(C)n(CC(=O)N2[C@H](C(=O)Nc3nc(Br)ccc3C)C[C@@]3(C)C[C@@H]23)c2ccc(-c3cnc(C)nc3)cc12` [Compound 483, (1R,3S,5R)-2-(2-(3-acetyl-2-methyl-5-(2-methylpyrimidin-5-yl)-1H-indol-1-yl)acetyl)-N-(6-bromo-3-methylpyridin-2-yl)-5-methyl-2-azabicyclo[3.1.0]hexane-3-carboxamide], above 6.00.
For `CC(=O)c1nn(CC(=O)N2[C@H](C(=O)Nc3nc(Br)c(F)cc3C)C[C@@]3(Cc4nnc(C)o4)C[C@@H]23)c2c(C)cc(-c3cnc(C)nc3)cc12` [Compound 484, (1R,3S,5R)-2-(2-(3-acetyl-7-methyl-5-(2-methylpyrimidin-5-yl)-1H-indazol-1-yl)acetyl)-N-(6-bromo-5-fluoro-3-methylpyridin-2-yl)-5-((5-methyl-1,3,4-oxadiazol-2-yl)methyl)-2-azabicyclo[3.1.0]hexane-3-carboxamide], the pIC50 was above 6.00.
Take `CC(=O)c1nn(CC(=O)N2[C@H](C(=O)Nc3nc(Br)c(F)cc3C)C[C@@]3(Cc4nnc(C)o4)C[C@@H]23)c2c(C)nc(-c3cnc(C)nc3)cc12` [Compound 485, (1R,3S,5R)-2-(2-(3-acetyl-7-methyl-5-(2-methylpyrimidin-5-yl)-1H-pyrazolo[3,4-c]pyridin-1-yl)acetyl)-N-(6-bromo-5-fluoro-3-methylpyridin-2-yl)-5-((5-methyl-1,3,4-oxadiazol-2-yl)methyl)-2-azabicyclo[3.1.0]hexane-3-carboxamide]: the pIC50 was above 6.00.
With `CC(=O)c1nn(CC(=O)N2[C@H](C(=O)Nc3nc(Br)ccc3Cl)C[C@@]3(Cc4nnc(C)o4)C[C@@H]23)c2c(C)cc(-c3cnc(C)nc3)cc12` [Compound 486, (1R,3S,5R)-2-(2-(3-acetyl-7-methyl-5-(2-methylpyrimidin-5-yl)-1H-indazol-1-yl)acetyl)-N-(6-bromo-3-chloropyridin-2-yl)-5-((5-methyl-1,3,4-oxadiazol-2-yl)methyl)-2-azabicyclo[3.1.0]hexane-3-carboxamide], the pIC50 was above 6.00.
In the case of `CCCNC(=O)c1nn(CC(=O)N2[C@H](C(=O)NCCC)C[C@@]3(C)C[C@@H]23)c2ccc(-c3cnc(C)nc3)cc12` [Compound 487, 1-(2-((1R,3S,5R)-5-methyl-3-(propylcarbamoyl)-2-azabicyclo[3.1.0]hexan-2-yl)-2-oxoethyl)-5-(2-methylpyrimidin-5-yl)-N-propyl-1H-indazole-3-carboxamide], the pIC50 is 5.00 to 6.00.
The same measure, in the same setting: next, `CCCCNC(=O)[C@@H]1C[C@@]2(C)C[C@H]2N1C(=O)Cn1nc(C(C)=O)c2cc(-c3cnc(C)nc3)ccc21` [Compound 488, (1R,3S,5R)-2-(2-(3-acetyl-5-(2-methylpyrimidin-5-yl)-1H-indazol-1-yl)acetyl)-N-butyl-5-methyl-2-azabicyclo[3.1.0]hexane-3-carboxamide]: above 6.00.

The experiment is the same for the next values; noted with them: Table 8; Factor D 80 nM, substrate Z-L-Lys-SBz; read-out: IC50.
As to `CCCNC(=O)c1nn(CC(=O)N2[C@H](C(=O)Nc3nc(Br)ccc3C)C[C@@]3(C)C[C@@H]23)c2ccc(-c3cnc(C)nc3)cc12` [Compound 475], the pIC50 was above 6.00.
Consider `CCCCNC(=O)c1nn(CC(=O)N2[C@H](C(=O)Nc3nc(Br)ccc3C)C[C@@]3(C)C[C@@H]23)c2ccc(-c3cnc(C)nc3)cc12` [Compound 476], for which the pIC50 was above 6.00.
On to `CCCCCNC(=O)c1nn(CC(=O)N2[C@H](C(=O)Nc3nc(Br)ccc3C)C[C@@]3(C)C[C@@H]23)c2ccc(-c3cnc(C)nc3)cc12` [Compound 477, 1-(2-((1R,3S,5R)-3-((6-bromo-3-methylpyridin-2-yl)carbamoyl)-5-methyl-2-azabicyclo[3.1.0]hexan-2-yl)-2-oxoethyl)-5-(2-methylpyrimidin-5-yl)-N-pentyl-1H-indazole-3-carboxamide], for which the pIC50 was below 5.00.
For the compound `Cc1ncc(-c2ccc3c(c2)c(C(=O)NCC2CC2)nn3CC(=O)N2[C@H](C(=O)Nc3nc(Br)ccc3C)C[C@@]3(C)C[C@@H]23)cn1` [Compound 478, 1-(2-((1R,3S,5R)-3-((6-bromo-3-methylpyridin-2-yl)carbamoyl)-5-methyl-2-azabicyclo[3.1.0]hexan-2-yl)-2-oxoethyl)-N-(cyclopropylmethyl)-5-(2-methylpyrimidin-5-yl)-1H-indazole-3-carboxamide], the pIC50 was above 6.00.
With `Cc1ncc(-c2ccc3c(c2)c(C(=O)NCC2CCC2)nn3CC(=O)N2[C@H](C(=O)Nc3nc(Br)ccc3C)C[C@@]3(C)C[C@@H]23)cn1` [Compound 479], the pIC50 is 5.00 to 6.00.
As for `Cc1ncc(-c2ccc3c(c2)c(C(=O)NCC(C)(C)C)nn3CC(=O)N2[C@H](C(=O)Nc3nc(Br)ccc3C)C[C@@]3(C)C[C@@H]23)cn1` [Compound 480], the pIC50 was below 5.00.
As for `Cc1ncc(-c2ccc3c(c2)c(C(=O)NCCN)nn3CC(=O)N2[C@H](C(=O)Nc3nc(Br)ccc3C)C[C@@]3(C)C[C@@H]23)cn1` [Compound 489, N-(2-aminoethyl)-1-(2-((1R,3S,5R)-3-((6-bromo-3-methylpyridin-2-yl)carbamoyl)-5-methyl-2-azabicyclo[3.1.0]hexan-2-yl)-2-oxoethyl)-5-(2-methylpyrimidin-5-yl)-1H-indazole-3-carboxamide], the pIC50 is 5.00 to 6.00.
Take `CNCCNC(=O)c1nn(CC(=O)N2[C@H](C(=O)Nc3nc(Br)ccc3C)C[C@@]3(C)C[C@@H]23)c2ccc(-c3cnc(C)nc3)cc12` [Compound 490, 1-(2-((1R,3S,5R)-3-((6-bromo-3-methylpyridin-2-yl)carbamoyl)-5-methyl-2-azabicyclo[3.1.0]hexan-2-yl)-2-oxoethyl)-N-(2-(methylamino)ethyl)-5-(2-methylpyrimidin-5-yl)-1H-indazole-3-carboxamide]: the pIC50 was 5.00 to 6.00.
